The source made the active and inactive calls.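 How the source made its calls: active means AC50, the dose giving half-maximal effect, exceeds a fixed cutoff for a compound that rescues yeast growth under heat; inactive means the rest, inconclusive results apart.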
Tested on: S. cerevisiae Burl-1 ts mutant growth, BacTiter-Glo, 38.5C 24 h
Assay: restored growth of temperature-sensitive Burl-1 yeast – whole organism, S. cerevisiae, Burl-1 ts mutant, luminescence, counter-screen for SUMOylation pathway inhibitor project, dose response (AID 463199)

Row | Compound | AC50
1 | CC1CCCC(N2C(=O)NC(NC(=O)c3ccco3)(C(F)(F)F)C2=O)C1C (stereo not drawn) | > 42 µM (inactive)
2 | CC1CCCC(C)N1/N=C/c1cc(Br)cc(Br)c1O (stereo not drawn) | > 42 µM (inactive)
3 | COc1ccc(Cc2nnc(NCCO)[nH]c2=O)cc1 | > 42 µM (inactive)
4 | CC(C)(C)C(=O)NC1(C(F)(F)F)NC(=O)N(c2ccccc2F)C1=O (stereo not drawn) | > 42 µM (inactive)
5 | Cn1c(O)c(C(c2ccccn2)c2c(O)n(C)c(=S)n(C)c2=O)c(=O)n(C)c1=S | > 42 µM (inactive)
6 | O=S(=O)(Cc1ccccc1)NCc1ccccn1 | > 42 µM (inactive)
7 | CNS(=O)(=O)c1cccc(C(=O)NCC2(N3CCCCC3)CCCCC2)c1 | > 42 µM (inactive)
8 | COc1ccc(C(=O)NCC(=O)Nc2ccccc2)cc1OC | > 42 µM (inactive)
9 | Cc1cc(/C=N/NC(=O)c2ccsc2)c(C)n1-c1cnccn1 | > 42 µM (inactive)
10 | CCn1cc(C(=O)N2CCN(c3ccc(OC)cc3)CC2)c(=O)c2cc(S(=O)(=O)N3CCOCC3)ccc21 | > 42 µM (inactive)
11 | CCOc1cc(-c2ccccc2)nc(N)n1 | > 42 µM (inactive)
12 | Cc1cc(C)n(-c2nc3ccccc3nc2N2CCN(C(=O)c3ccccc3)CC2)n1 | > 42 µM (inactive)
13 | CC(=O)N1CC(=O)Nc2ccc(Cl)cc2C1c1ccccc1 (stereo not drawn) | > 42 µM (inactive)
14 | CC(=O)N1N=C(c2ccc(C(C)(C)C)cc2)OC1(C)C | > 42 µM (inactive)
15 | COCCN(C(=O)CSc1nnc(-c2ccc(C)cc2)n1N)c1c(N)n(Cc2ccccc2)c(=O)[nH]c1=O | > 42 µM (inactive)
16 | Nc1cc(C(=O)OCC(=O)N2CCOCC2)ccc1Cl | > 42 µM (inactive)
17 | COc1cccc(C2C(C(C)=O)=C(O)C(=O)N2CCc2c[nH]c3ccccc23)c1 (stereo not drawn) | > 42 µM (inactive)
18 | COc1ccc(-c2nnc(SCC(C)C)o2)cc1 | > 42 µM (inactive)
19 | CC(C)(C)c1ccc(C(=O)NCCC(=O)N2CCN(c3ncccn3)CC2)cc1 | > 42 µM (inactive)
20 | O=C1CCc2cc(S(=O)(=O)N3CCC(C(=O)NC4CCCC4)CC3)ccc2N1 | > 42 µM (inactive)
21 | CC(C)COc1ccc(C(=O)Nc2ccc([N+](=O)[O-])cc2)cc1 | > 42 µM (inactive)
22 | Cn1c(SCC(=O)Nc2ccc(N3CCOCC3)c(Cl)c2)nnc1-c1ccccc1 | > 42 µM (inactive)
23 | CCOC(=O)N1CCN(C(=O)c2ccc(OC)c(OC)c2)CC1 | > 42 µM (inactive)
24 | O=C(O)CCC(=O)Nc1cccc(C(=O)Nc2ccc(Br)cc2)c1 | > 42 µM (inactive)
25 | CCN(CCn1cccn1)C(=O)C1CCC(=O)N(CCc2cccc(F)c2)C1 (stereo not drawn) | > 42 µM (inactive)

Row | Compound | AC50
26 | O=C(C1CCN(S(=O)(=O)N2CCC3(CC2)OCCO3)CC1)N1CCC(Cc2ccccc2)CC1 | > 42 µM (inactive)
27 | COc1cc(NC(=O)CCN2CCN(Cc3ccccc3)CC2)cc(OC)c1 | > 42 µM (inactive)
28 | COc1cc(C)c(Cl)c(C)c1S(=O)(=O)NCc1ccc2c(c1)OCO2 | > 42 µM (inactive)
29 | O=C(NCCCN1CCOCC1)C1CCC(=O)N1CCc1ccccc1 (stereo not drawn) | > 42 µM (inactive)
30 | Cc1ccc(NC(=O)CCS(=O)(=O)c2ccc3nc(C)sc3c2)cc1 | > 42 µM (inactive)
31 | CCOC(=O)c1c(C)n(C)c2cc(-c3ccc(C)cc3)c(O)cc12 | > 42 µM (inactive)
32 | O=C(c1ccc(OC2CCN(CCc3ccccc3)CC2)cc1)N1CCCC1 | > 42 µM (inactive)
33 | O=C(CSc1nc(-c2ccccc2)nc2ccc(F)cc12)Nc1cccc(C(=O)O)c1 | > 42 µM (inactive)
34 | CCS(=O)(=O)c1nc(S(=O)(=O)c2ccc(Cl)cc2)c(N2CCc3ccccc3C2)s1 | > 42 µM (inactive)
35 | COc1ccc(N(C(=O)c2ccncc2)S(=O)(=O)c2ccc(F)cc2)cc1 | > 42 µM (inactive)
36 | CN(CC(=O)NCc1cccs1)S(=O)(=O)c1cccc2nsnc12 | > 42 µM (inactive)
37 | Cc1cc2c3c(c1)C1(SCC(=O)N1c1ccc(F)cc1)C(=O)N3C(C)(C)CC2C (stereo not drawn) | > 42 µM (inactive)
38 | Cc1ccccc1CSc1n[nH]c(NS(=O)(=O)c2ccccc2)n1 | > 21 µM (inactive)
39 | Cc1ccc(S(=O)(=O)N(C)c2ccc(OC(=O)CN3C(=O)NC4(CCCC4)C3=O)cc2)cc1C | > 42 µM (inactive)
40 | CN1C(=O)C(=Cc2ccc(N3CCCCC3)o2)C(=O)N(C)C1=S | > 42 µM (inactive)
41 | CCOc1ccc(-c2nc(C#N)c(N3CCOCC3)o2)cc1 | > 42 µM (inactive)
42 | CC1CCN(Cc2nc3c(c(=O)n(C)c(=O)n3C)n2CCc2ccccc2)CC1 | > 42 µM (inactive)
43 | CC1CCN(S(=O)(=O)c2ccc(NC(=O)c3cccs3)cc2)CC1 | > 42 µM (inactive)
44 | O=C(c1cc(N2C(=O)C3C4CCC(C4)C3C2=O)ccc1Cl)N1CCN(c2ccccc2)CC1 (stereo not drawn) | > 42 µM (inactive)
45 | Cc1ccc(C(=O)Nc2ccc3c(c2)OCCO3)c(Cl)c1 | > 42 µM (inactive)
46 | N#Cc1cccc(NC(=O)CSc2n[nH]c(=O)[nH]c2=O)c1 | > 42 µM (inactive)
47 | CC(=O)N(C(C)=O)C1=C(C#N)C2(CCCCC2)Cc2ccccc21 | > 42 µM (inactive)
48 | Cc1nc2ccccc2c2ncccc12 | > 42 µM (inactive)
49 | CCOc1ccc(C(=O)c2cccs2)cc1 | > 42 µM (inactive)
50 | COC(=O)c1cccc(NC(=O)c2ccc[n+]([O-])c2)c1 | > 42 µM (inactive)

Row | Compound | AC50
51 | COc1cccc(Cn2cnc3c(NS(=O)(=O)c4cccc(Cl)c4Cl)c(C)c(C)cc32)c1 | > 42 µM (inactive)
52 | COc1ccc(/C=C(/C#N)S(=O)(=O)c2ccc(C)cc2)cc1 | > 21 µM (inactive)
53 | COC(=O)C1C2C=CC3(CN(CCc4ccccc4)C(=O)C13)O2 (stereo not drawn) | > 21 µM (inactive)
54 | Cc1ccc(NC(=S)NC(NC(=O)c2ccccc2C)C(Cl)(Cl)Cl)c(C)c1 (stereo not drawn) | > 42 µM (inactive)
55 | CCOC(=O)N1CCN(S(=O)(=O)c2ccc(C)c(C)c2)CC1 | > 42 µM (inactive)
56 | COCCn1c(-c2ccc(Cl)cc2)cnc1SCC(=O)NCCc1ccc(OC)c(OC)c1 | > 42 µM (inactive)
57 | CC(C)(C)c1ccc(CN(Cc2ccccc2)C(c2ccccn2)c2nnnn2C(C)(C)C)cc1 (stereo not drawn) | > 42 µM (inactive)
58 | COc1ccc(CN2CCN(C(=O)c3cc(-c4cccnc4)nc4ccc(Cl)cc34)CC2)c(OC)c1OC | > 42 µM (inactive)
59 | COc1ccc(N2CCN(C(=O)Cn3nnc(-c4ccc(OC)c(OC)c4)n3)CC2)cc1 | > 42 µM (inactive)
60 | COCCNC(=O)NC(=O)CSc1nc(C)c(C)c(C)n1 | > 42 µM (inactive)
61 | Cc1ccc(-c2csc3ncn(CC(=O)N4CCOCC4)c(=O)c23)cc1 | > 42 µM (inactive)
62 | C(=N\Nc1ccc2nncn2n1)/c1ccccn1 | > 42 µM (inactive)
63 | Cn1c(CCN2CCOCC2)nc2cc(NC(=O)COc3ccccc3)ccc21 | > 42 µM (inactive)
64 | COc1cccc(NC(=S)NC(=O)c2cncc(Br)c2)c1 | > 42 µM (inactive)
65 | COc1cccc(/C=N/NC(=O)CCn2cnc3ccccc32)c1 | > 42 µM (inactive)
66 | CCC(C)c1ccc(S(=O)(=O)N2CCN(C(=O)COc3ccc4c(C)cc(=O)oc4c3)CC2)cc1 (stereo not drawn) | > 42 µM (inactive)
67 | COc1ccc(C(=O)Nc2ccccc2C(=O)NCCN2CCOCC2)cc1OC | > 42 µM (inactive)
68 | COc1ccc(-n2c(C)cc(C(=O)CN3C(=O)NC4(CCCc5sccc54)C3=O)c2C)cc1 (stereo not drawn) | > 42 µM (inactive)
69 | CCN(CC)CCNc1ncnc2c1[nH]c1ccc(OC)cc12 | > 42 µM (inactive)
70 | CCOc1cc(C(N)=O)cc(Cl)c1OCc1ccccc1 | > 42 µM (inactive)
71 | COc1ccc(CCC(=O)Nc2ccc3c(c2)OCO3)cc1 | > 42 µM (inactive)
72 | Cc1ccccc1-c1nc(CN2CCCC(C(=O)NCc3cccnc3)C2)c(C)o1 (stereo not drawn) | > 42 µM (inactive)
73 | CN(C/C=C/c1ccccc1[N+](=O)[O-])Cc1ccccc1 | > 42 µM (inactive)
74 | O=S(=O)(Cc1ccccc1)N1CCN(c2ncccn2)CC1 | > 42 µM (inactive)
75 | O=C(CSc1cccc[n+]1[O-])N1CCc2ccccc21 | > 42 µM (inactive)

Row | Compound | AC50
76 | CCCOc1ccccc1C1NC(=O)NC(C)=C1C(=O)OCCOCC (stereo not drawn) | > 42 µM (inactive)
77 | O=C(Nc1ccccc1N1CCOCC1)c1cc(Br)c(Br)s1 | > 42 µM (inactive)
78 | Cc1ccc(C)c(NC(=O)COC(=O)c2ccc3c(c2)OCO3)c1 | > 42 µM (inactive)
79 | CN(C(=O)c1ccncc1)c1nnc(-c2cnccn2)s1 | > 42 µM (inactive)
80 | CN(C)S(=O)(=O)N1CCc2ccccc2C1 | > 42 µM (inactive)
81 | Fc1ccc(-c2cc(C(F)(F)F)nc(NCc3cccs3)n2)cc1 | > 42 µM (inactive)
82 | CCOc1ccc(Br)cc1S(=O)(=O)N1CCC(C(N)=O)CC1 | > 42 µM (inactive)
83 | CCCS(=O)(=O)N1CCC(C(=O)N2CCc3ccccc3C2)CC1 | > 42 µM (inactive)
84 | COc1cccc(NC(=O)CN2CCN(c3ccccc3F)CC2)c1 | > 42 µM (inactive)
85 | O=C(COC(=O)COc1ccccc1Cl)Nc1ccccc1OC(F)F | > 42 µM (inactive)
86 | Cc1c(NC(=O)CN2C(=O)NC(C)(c3ccc(OC(F)F)cc3)C2=O)c(=O)n(-c2ccccc2)n1C (stereo not drawn) | > 42 µM (inactive)
87 | COc1cc(C(=O)Nc2sc3c(c2C(=O)O)CCC(C)C3)cc(OC)c1OC (stereo not drawn) | > 42 µM (inactive)
88 | c1ccc(-c2csc(N3CCN(c4ccccn4)CC3)n2)cc1 | > 42 µM (inactive)
89 | C/C(=N\NC(=O)c1ccc(Cl)cc1)c1cccnc1 | > 42 µM (inactive)
90 | COCCNC(=O)C(=O)NCC1OCCN1C(=O)c1ccc(Cl)cc1 (stereo not drawn) | > 42 µM (inactive)
91 | CCN(CC)CCNC(=O)CCn1c(=S)[nH]c2cc3c(cc2c1=O)OCO3 | > 42 µM (inactive)
92 | CCN(CC)C1CCN(C(=O)c2cc(COc3ccc(-n4cncn4)cc3)on2)C1 (stereo not drawn) | > 42 µM (inactive)
93 | CCOc1ccc(-c2nc3n(c(=O)c2C#N)CCS3)cc1 | 40.7 µM
94 | CCn1c(SC(=O)NC2CCCCC2)nnc1-c1cccs1 | > 42 µM (inactive)
95 | CCOc1ccc(N(CC(=O)NC2CCC(C)CC2)S(=O)(=O)c2c(C)noc2C)cc1 (stereo not drawn) | > 42 µM (inactive)
96 | CC(C)(CNC(=O)c1cccs1)CNC(=O)c1cccs1 | > 42 µM (inactive)
97 | CCOC(=O)c1nc(Nc2ccccc2CC)c2ccccc2n1 | > 42 µM (inactive)
98 | Cc1n[nH]c(=O)nc1NCc1ccc(Cl)cc1 | > 42 µM (inactive)

From PubChem BioAssay AID463199 (Broad Institute, 2010)
